Data taken from patent publication US20240307374A1, “FORMULATION OF FURIN INHIBITOR FOR INHALATION” (BP ASSET V, INC., priority 2021, published 2024).
Marks after values point to notes of the source that are not given here.

How the values were obtained:
Assay type in all cases: physicochemical
[1] = Equilibrium solubility in pH buffers (pH 4.0-6.0) with pH adjustment; conditions: for S: solubility: RT, with pH adjustment; for pH before adjustment (in brackets): 24 hours
Protocol: In details, ˜5 mg of solids were suspended into 1 mL of each medium with dosing conc. at ˜5 mg/mL. Additional solids were added into the sample to generate suspension if clear solution was obtained. The suspension was equilibrated via stirring (1000 rpm) for 24 hours. The pH of the suspension was adjusted when the final pH shifted above 0.3, and the samples were stirred for another 1.5 hours after pH adjustment. The suspension was centrifuged to obtain precipitate and supernatants. Solubility, purity and pH were tested for the supernatants after filtration, and isolated precipitate was tested by XRPD.
(§1) • 1. pH=3.0 buffer (50 mM HCl+KCl): Weigh 365.39 mg KCl into a 100 mL volumetric flask (VF), and add 0.1 mL 1M HCl into the VF, and dilute to volume with water. • 2. pH=4.0 buffer (50 mM citrate): Weigh 56.74 mg citric acid and 60.18 mg trisodium citrate into a 10 mL volumetric flask, and dilute to volume with water. • 3. pH=5.0 buffer (50 mM citrate) Weigh 11.12 mg citric acid and 95.38 mg trisodium citrate into a 10 mL volumetric flask, and dilute to volume with water. • 4. pH=6.0 buffer (50 mM citrate) Weigh 11.04 mg citric acid and 130.2 mg trisodium citrate into a 10 mL volumetric flask, and dilute to volume with water. • 5. pH=6.0 buffer (50 mM phosphate) Weigh 8.7 mg Na2HPO4 and 52.6 mg NaH2PO4 into a 10 mL volumetric flask, and dilute to volume with water. • 6. pH=7.0 buffer (50 mM phosphate) Weigh 23.47 mg Na2HPO4 and 43.34 mg NaH2PO4into a 10 mL volumetric flask, and dilute to volume with water. • 7. pH=8.0 buffer (50 mM phosphate) Weigh 31.64 mg Na2HPO4 and 67.18 mg NaH2PO4into a 10 mL volumetric flask, and dilute to volume with water.

[2] = Equilibrium solubility in pH buffers (3.0-8.0), 20% captisol and water; conditions: 24 hrs; for S: solubility: RT
Protocol: Additional solids were added into the sample to generate suspension if clear solution obtained. The suspension was equilibrated via stirring (1000 rpm). The suspension was centrifuged to obtain precipitate and supernatants.
Solubility and pH were tested for the supernatants after filtration, and isolated precipitate was tested by XRPD.
as §1

[3] = Grinding stability; conditions: ~30 mg ground manually in a mortar for about 5 minutes
[4] = DVS (dynamic vapor sorption) moisture uptake; conditions: for form change after DVS test (XRPD): XRPD before and after DVS
Protocol: (FIG. 5). Sample weight decreased rapidly when humidity decreased from 10% to 0%, which might be caused by loss of crystalline water.
DVS was measured via a SMS (Surface Measurement Systems) DVS Intrinsic.

[5] = Approximate solubility at RT; conditions: CHCl3, RT, solvent for freeform isolation
Protocol: Four freeform isolation experiments were performed in different solvent with different acids. Solids were obtained in DCM/HCl and CHCl3/HCl system.
Approximately 2 mg solids were added into a 3-mL glass vial. Solvents in the following table were then added stepwise (50-50-200-700[…] for each step) into the vials and stirred until the solids were dissolved or a total volume of 1 mL was reached. The solubility results were used to guide the solvent selection in polymorph formation.

[6] = pH = 4.0 buffer (50 mM citrate)
[7] = pH = 5.0 buffer (50 mM citrate)
[8] = pH = 6.0 buffer (50 mM citrate)
[9] = pH = 6.0 buffer (50 mM phosphate)
[10] = pH = 3.0 buffer (50 mM HCl + KCl)
[11] = pH = 7.0 buffer (50 mM phosphate)
[12] = pH = 8.0 buffer (50 mM phosphate)

## CC(=O)NCC1CCN(Cc2cc(Oc3ccc(N4CCN(CCC(=O)O)CC4)nc3)nc(-c3cc(Cl)cc(Cl)c3)c2)CC1 [Sulfate Type B]
[1]; [6]
  Area % (purity of supernatant): 99.2 Area %
  FC: form change (XRPD of precipitate): Low (Low; low crystallinity)
  pH (final, after adjustment where adjusted): 3.9
  S: solubility: 2.29 mg/mL
[1]; [7]
  Area % (purity of supernatant): 99.4 Area %
  FC: form change (XRPD of precipitate): 3 (3/4/6/7/8: new Form 3/4/6/7/8)
  pH (final, after adjustment where adjusted): 5.0*
  pH before adjustment (in brackets): (4.5)
  S: solubility: 6.82^# mg/mL
[1]; [8]
  Area % (purity of supernatant): 92.6 Area %
  FC: form change (XRPD of precipitate): 6 (3/4/6/7/8: new Form 3/4/6/7/8)
  pH (final, after adjustment where adjusted): 6.1*
  pH before adjustment (in brackets): (4.4)
  S: solubility: 0.07 mg/mL
[1]; [9]
  Area % (purity of supernatant): 88.2 Area %
  pH (final, after adjustment where adjusted): 6.2*
  pH before adjustment (in brackets): (3.0)
  S: solubility: 0.06 mg/mL
[2]; 20% Captisol (pH = 5.0, w/v)
  pH of supernatant (final pH): 2.6
  S: solubility: >44.5^1 mg/mL
[2]; H2O
  FC: form change (XRPD of precipitate): N (N: solid form not changed)
  pH of supernatant (final pH): 2.4
  S: solubility: 1.97 mg/mL
[2]; [10]
  FC: form change (XRPD of precipitate): 1 (1/2/3/4/5: new Form 1/2/3/4/5)
  pH of supernatant (final pH): 2.3
  S: solubility: 8.00 mg/mL
[2]; [6]
  FC: form change (XRPD of precipitate): Low (Low: low crystallinity)
  pH of supernatant (final pH): 3.8
  S: solubility: 2.33 mg/mL
[2]; [7]
  FC: form change (XRPD of precipitate): 3 (1/2/3/4/5: new Form 1/2/3/4/5)
  pH of supernatant (final pH): 4.4
  S: solubility: 1.66* mg/mL
[2]; [8]
  FC: form change (XRPD of precipitate): 3 (1/2/3/4/5: new Form 1/2/3/4/5)
  pH of supernatant (final pH): 4.3
  S: solubility: 0.93* mg/mL
[2]; [11]
  FC: form change (XRPD of precipitate): 2 (1/2/3/4/5: new Form 1/2/3/4/5)
  pH of supernatant (final pH): 5.6
  S: solubility: 0.61* mg/mL
[2]; [12]
  pH of supernatant (final pH): 6.9
  S: solubility: 0.04* mg/mL
[3]
  crystallinity after grinding (XRPD): decreased after grinding
[4]
  form change after DVS test (XRPD): Two additional peaks

## CC(=O)NCC1CCN(Cc2cc(Oc3ccc(N4CCN(CCC(=O)O)CC4)nc3)nc(-c3cc(Cl)cc(Cl)c3)c2)CC1 [starting material]
[5]
  solubility: S > 50.5 mg/mL
[4]; 25° C., from 10% RH to 80% RH
  Moisture Uptake (DVS): 0.7%
[4]
  form change after DVS test (XRPD): no form change
